These results are taken from patent US20260094669A1, “EPITOPE PREDICTION VIA A LEARNED GENOTYPE NETWORK ACROSS CLASS II MHC ALLELES” (Seattle Project Corp., priority 2023, published 2026).

First the molecules themselves.
T1: HLA-DP of Raji cells (DPA1*02:02/DPB1*01:01) (human, UniProt P20036 29-222; P04440 30-225, limits assumed)
T1 construct: whole, on cells; also called Raji_25mer DP
T1 MHC II alpha: not shown
T1 MHC II beta: not shown

B1: GACGVGKSALTIQLI (peptide)
peptide: GACGVGKSALTIQLI
notes: KRAS G12C peptide eluted from HLA class II of cells engineered to express a KRAS G12C construct; also called Peptide_099class2; KRAS MHC II Peptide 099
B2: MTEYKLVVVGAC (peptide)
peptide: MTEYKLVVVGAC
notes: KRAS G12C peptide eluted from HLA class II of cells engineered to express a KRAS G12C construct; also called Peptide_098class2; KRAS MHC II Peptide 098

One assay concerns the target T1, HLA-DP of Raji cells …. The assay is described as follows: targeted MS of peptides eluted from HLA-DP IP (B7/21.1), Raji cells expressing KRAS G12C 25mer.
Settings: not given
As for B1, the binding result is reported as “binds”.

A further assay deals with CD4+ T cell.
Experiment: not given
The conditions noted are these: CD4+ immunogenicity label (1/0) used in logistic regression; ELISpot response data from Ott et al.; cited from earlier work.
On to NNSKKKWFLFQDSKKIQVEQPQ, for which the y is 0.

For the molecule EVVGGYTWPSGNIYQGYWAQGKR, the y is 0.

On to RYNSTAATNEVSEVTVFSKSPVT, for which the y was 0.

As to DRSVLAKKLKFVTLVFRHGDRSPID, the y is reported as 0.

Take SHHTHSYQRYSHPLFLPGHRLDPPI: the y is on record as 0.

Consider GHQKLPGKIHLFEAEFTQVAKKEPDG, for which the y is reported as 1.

Turning to SLPSNVLSSLVLVPLHTTPK, the y is 0.

Take STEVEPKESPHLARHRHLMKTLVKSLST: the y is reported as 0.

For PASAKSRREFDKIELAYRR, the y is 0.

For PAHPSQGAVPPSRAAAEPHLKPSPSELQTA, the y is recorded as 1.

On to SRLQTRKNKKLALSSTPSNIAPSD, for which the y is 1.

Take NLKAPRLLFAPEYGPKLKLRALEDRHS: the y is given as 0.

In the case of SHNELADSGIPENSFNVSSLVE, the y is 0.

In the case of AAVRPEQRPAARGSRV, the y is given as 0.

For the molecule STQHADLTIIDNIKEMNFLRRYK, the y is on record as 0.

On to KGEKNGMTFSSTKDYVNNV, for which the y is 0.

Turning to GSGSQMPAWRTRGAISASSTQKTPTTRL, the y is listed as 0.

As for STLPVISDSTTKRRWSALVIGL, the y was 0.

With LSPREEFLRLCKKIMMRSIQ, the y is recorded as 1.

In the case of MAGPKGFQYRALYPFRRER, the y is on record as 0.

Turning to GSVLQFMPFTTVSELMKVSAMSSPKV, the y was 0.

Take RGQIKLADFRLARLYSSEESR: the y is recorded as 0.

As to GPLQLPVTRKNMPLPGVVKLPPLPGS, the y was 0.

As to KHLPGVNFPGNQWNPVEGILPS, the y is 0.

With PENDDLFMMPRIVDVTSLATEGG, the y is 0.

For the molecule SSPLGRANGRRFANPRDSFSAMGFQR, the y was 0.

In the case of DGVSEEFWLVDLLPSTHYT, the y was 1.

EIHGKCENMTITSRGTTVTPTKETVSLG: the y is listed as 0.

On to PETGEIQVKTFLDREQRESYELKV, for which the y was 0.

As for KLRTIPLSDNTIFRRICTIAKHLE, the y is reported as 1.

Take DGAWPVLLDKFVEWYKDKQMS: the y was 0.

HLLQKQTSIQSPSLYGNSSPPLNK: the y was 0.

For WTPAAPTAMAEVGPGHTPAHPSQGAVPP, the y is 1.

For AASAAAFPSQRTSWEFLQSLVSIKQEK, the y is on record as 1.

Take SGSPPLRVSVGDFSQEFSPIQEAQQD: the y is listed as 1.

As to LCPREEFLRLCKKIMMRSIQ, the y is reported as 0.

NQVLASRYGIRGFSTIKIFQKGESPV: the y is reported as 0.

In the case of EDSDKLFESKAELADHQKF, the y is 0.

Regarding FAKGFRESDLNSWPVAPRPLLSV, the y is on record as 0.

SHLASLKNNVSPVLRSHSFSDPSPKFA: the y is reported as 1.

In the case of KMQRRNDDKSILMHGLVSLRESSRG, the y is 0.

ASATEPANDSLFSPGAANLFSTYLAR: the y is 0.

On to TETVNHHYLLFQNTDLGSFHDLLR, for which the y is on record as 1.

As to ALLQNVELRRNVLVSPTPLAN, the y is given as 0.

For the molecule VTSPKASPVTFPAAAFPTASPANKD, the y was 1.

As for PGGDSGELITDAHELGVAHPPGY, the y is listed as 0.

As to FPVVQSTEDVFPQGLPNEYAFVT, the y is 0.

As to GLTRISIQRAQPLPPCLPSFRPPTALQGLS, the y is listed as 0.

Take TGKPEMDFVRLAQLFARARPMGLF: the y is on record as 0.

As for ARLQSKEYPVIFKSIMRQRLISPQL, the y is listed as 0.

With GRMSPSQFARVPGYVGSPLAAMNPK, the y is 1.

GHEHQPDMQKSLLRAAFFGKCFLDR: the y is on record as 1.

Consider LHTHYDYVSALHPVSTPSKEYTSA, for which the y is recorded as 0.

With SPQSGGAATLAAQARLQPVHLDVWGEHERG, the y is given as 0.

Regarding TRNSFALVPSLQRLMLRKVALKNVDSSPS, the y was 0.

With DVTGPHLYSIYLHGSTDKLPYVTMGS, the y was 0.

Regarding WCTEMKRVFGFPVHYTDVSNMS, the y is 0.

As for SHKLESIKEITNFKDAKQLL, the y was 0.

Turning to PAPPPAVPKEHPAPPAPPPASAPTP, the y is listed as 0.

SSHYKFSKPALQSQSISLVQQS: the y is 1.

FCGTPDYIAPKIIAYQPYGKSVD: the y was 0.

Regarding SPIKLVQKVASKIPFPDRITEESV, the y is on record as 0.

On to DKGHQFHVHPLLHSGDDLDP, for which the y was 0.

Turning to YLSHTLGAASSFMRPTVPPPQF, the y is listed as 0.

Turning to SHTQTTLFHTFYELLIQKNKHK, the y is reported as 0.

Regarding RPAGRTQLLWTPAAPTAMAEVGPGHTP, the y was 1.

As to RGRLPAGAVRTLLSQVNKVWDQSS, the y is given as 0.

With TFPKKIQMLARDFLDEY, the y was 0.

As for DEQGREAELARSGPSAAGPVRLKPGLVPGL, the y is on record as 0.

HASHLQEHQRIYTGEKPFKCDT: the y is 0.

Take RLVLGKFGDLTNNFSSPHAR: the y is 0.

Take SDAFSGLTALPQSILLFGP: the y is 0.

Turning to MSQDIKKADEQIESMTYSTERKT, the y was 0.

As for TAQFAPSPGQPPALSPSYPGHRLPLQQG, the y is reported as 0.

As for SLTEESGGAVAFFPGNLSTSSSA, the y is 0.

TKLKSKAPHWTNCILHEYKNLSTS: the y was 0.

DGGRQHSGPRRHSGAGPKPSSSEWAVCWAP: the y is on record as 0.

For the molecule ERFWRNILLLSLHKGSLYPRIPGLGKE, the y was 0.

In the case of DSYHLYAYHEELSATVPSQWKKIG, the y is 0.

Regarding EDLDANLRKLNFRLFVIRGQPAD, the y is recorded as 0.

LGETMGQVTEKLQPTYMEET: the y is given as 0.

Take LENNANHDETSFLLPRKESNIVD: the y is listed as 0.

As for TIKNSDKNVVLEHFG, the y is 0.

On to SPGPRTAPRPGSQKQAGKDWQ, for which the y was 0.

With DRASFLLTDYALSPDGSIRKATG, the y was 1.

VKQLERGEASVVDFKKNLEYAAT: the y is listed as 0.

Consider TTPSGSAEYMASEVVEVFTDQAT, for which the y is 0.

SHQIHSYQLYTHPLLHPWDHRD: the y is 0.

For GDQYKATDFVADWAGTFKMVFTPKDGSG, the y is reported as 1.

For the molecule VNGISSQPQVPFYPNLQKSQYYSTV, the y is listed as 0.

As for VTLNDMKARQKALVRERERQLA, the y is listed as 0.

For TKRQVILLHTELERFLEYLPLRF, the y is reported as 0.

For RRGGALFASRPRFTPL, the y is 0.

For the molecule SLRNNMFEISDRFIGIYKTYNITK, the y is recorded as 0.

Regarding LNTGLFRIKFKEPLENLI, the y is reported as 0.

Consider ELQYRGRELRFNLIANQHLLAPGFVSETR, for which the y is recorded as 1.

For the molecule TTVTHERKQAKVVNPPIQEVGKGARK, the y is reported as 0.

A further assay deals with T2, HLA-DP of DBB cells (DPA1*01:03/DPB1*04:01) (human, UniProt P20036 29-222; P04440 30-225, limits assumed).
T2 construct: whole, on cells; also called DBB_25mer DP
T2 sequence (P20036 29-222 limits assumed, chain 1 of 4, other chains not shown): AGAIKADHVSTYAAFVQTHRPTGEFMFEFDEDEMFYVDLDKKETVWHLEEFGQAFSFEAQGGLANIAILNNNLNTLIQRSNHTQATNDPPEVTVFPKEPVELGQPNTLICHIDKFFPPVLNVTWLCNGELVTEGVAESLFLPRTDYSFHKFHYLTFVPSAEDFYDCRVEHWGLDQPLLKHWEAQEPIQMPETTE
T2 sequence (P04440 30-225 limits assumed, chain 2 of 4, other chains not shown): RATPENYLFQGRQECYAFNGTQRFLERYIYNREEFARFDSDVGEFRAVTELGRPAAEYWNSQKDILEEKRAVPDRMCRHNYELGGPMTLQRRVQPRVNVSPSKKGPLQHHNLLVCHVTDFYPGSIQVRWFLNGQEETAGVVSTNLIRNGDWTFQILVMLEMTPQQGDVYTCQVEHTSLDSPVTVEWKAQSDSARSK
The assay is described as follows: targeted MS of peptides eluted from HLA-DP IP (B7/21.1), DBB cells expressing KRAS G12C 25mer.
Settings: not given
Turning to B2, the binding result is reported as “binds”.

Another assay deals with CD4 or CD8 T cell depleted PBMCs. The assay is described as follows: CD4/CD8 depletions followed by IFNγ ELISpot or FluoroSpot. In kind it is cell-based, human. To be noted: PBMCs from single donors; peptide #29: donor SE-0386. As for the experimental part: CD4 or CD8 T cells were depleted from total PBMCs using Miltenyi MACS microbeads and columns. PBMCs were labeled with anti-CD4 or anti-CD8 microbeads before being run through a MACS Column placed in a MACS Separator magnet. Labeled cells remained in the column and the negative fractions were collected as either the CD8 or CD4 enriched population. Cells were then plated at 200,000 cells/well and stimulated overnight in an IFNγ ELISpot assay or FluoroSpot assay to detect IFNγ or IL-2.
On to EYKLVVVGACG [Peptide_29], for which the “responses in CD4 enriched (CD8 depleted) samples” value is “demonstrated responses”.

Still in this assay, the particulars now being: class II long OLP pools deconvolution.
For EYKLVVVGACG [Peptide_29], the “T cell response in healthy donor SE-0386” value is on record as “CD4^+ T cell-dependent response”.

A further assay relates to rTCR Jurkat cells (CD69, CD25). Kind of assay: recombinant TCR (rTCR) Jurkat functional assay. The assay is classed as cell-based, human. The conditions noted are these: co-culture with class II matched KAS116 cells.
As to EYKLVVVGACG [Peptide_29], the “response of TCR969/TCR995 rTCR Jurkat cells to the peptide” value is on record as “confirmed responses”.

For the next assay, the system named is IFNγ-producing T cells (PBMCs). The assay is described as follows: ex vivo IFNγ ELISpot assay. In kind it is cell-based, human. To be noted: PBMCs from single donor SE-0386.
In the case of EYKLVVVGACG [Peptide_29], the “response to single peptides from CD8 pools, ex vivo ELISpot” value was “demonstrated a response”.

The same assay, now with this note: patient G05-002-122 PBMCs following vaccination.
Turning to EYKLVVVGACG [Peptide_29], the “responses to single 8-11mer peptides, ex vivo IFNγ ELISpot” value is listed as “confirmed responses”.
